Results taken from US20190133998A1, “TREATMENT OF TUMORS WITH INHIBITORS OF CXCL12 SIGNALING AND SUBT[…] OF CHEMOTHERAPEUTIC AGENTS” (THE GENERAL HOSPITAL CORPORATION, priority 2016, published 2019).
Like-named read-outs stand apart in the source and are kept apart here.

Key:
CXCR4 = CXCR4 (Mus musculus, UniProt P70658); settings: ID8 cells; for expression of CXCR4 reduced by: AMD3100 10 μM, normalized, negative control 0, untreated 100
Method: CXCR4, CXCR7, and CXCL12 expression in ovarian cancer cells: ID8 or TOV-112D cells were plated at 750,000 cells/well in 6-well plates. Conditions were WT, WT+AMD3100 (10 μM for ID8/5 μM for TOV-112D, MedChemExpress HY-50912 and AbCam ab1207180) 16 hrs, and WT+AMD3100 4 hrs. 2× drug stocks were made in complete DMEM, final volume per well was 2 mL. GolgiPlug (BD Pharmingen) was added to all wells 3 hrs prior to harvesting according to manufacturer's protocol. CXCL12, CXCR4, and CXCR7 expression was measured by Flow Cytometry. Antibodies: anti-h/mCXCL12/SDF-1 APC (IC350A, RandD Systems), anti-mCXCR4/CD184 PE (551966, BD Bioscience), anti-hCXCR4/CD184 PE (306506, BioLegend), anti-h/mCXCR7 PE-Cy7 (331115, BioLegend).
Flow Cytometry: Cells were harvested using enzyme free dissociation buffer (Thermo Fisher Scientific 13151014) and counted using Trypan Blue viability dye (Corning). Equal numbers of cells were labeled with antibody for surface markers. Thereafter cells were stained for viability and where needed with secondary antibody. […] All incubation steps were performed at 4° C. on a rocker in the dark. Cells were washed 2× before analysis in cell staining buffer consisting of PBS containing 0.5% BSA, 0.02% Sodium Azide, and 2 mM EDTA. Analysis of samples in duplicate was done with a BD Fortessa collecting a minimum of 10,000 events per sample and using FlowJo software.

TOV-112D cells [1] = assay: Soft-agar colony formation, TOV-112D; type: cell-based, human; settings: TOV-112D, AMD3100 2.5 μM
Method: ID8 and TOV Colony Formation in The Presence of Small Molecules and/or Chemotherapy: Bottom Layer Hard Agar: 2×DMEM and 0.8% agar stock was prepared and adjusted to 42° C. in a water bath for 30 min. The agar and 2×DMEM were mixed (1:2). 500 μL of the mixture was then added to each well of a 24 well plate, and the plate was rocked to distribute evenly and allowed to solidify at room temperature in a tissue culture hood. Upper Layer Soft Agar: 0.6% agar stock was prepared adjusted to 42° C. in a water bath for 30 min. During this time, ID8 cells were trypsinized, and 40,000 cells per mL suspension in 1×DMEM was made. Cell suspensions were then mixed with soft agar stock (1:2) and 500 μL of the mixture was then added to each well. Each condition was in triplicate.
[…] 100 μL of each drug was added to the relative wells in triplicate. Plates were then incubated in a humidified incubator with […] for 20-30 days. At the end of the experiment, each well was stained with 0.005% crystal violet in 15% ethanol (140 μL per well) and plates were incubated again for several hours then photos were taken using a microscope. ID8 Colonies equal or bigger […] and TOV colonies equal or bigger than […] were counted using Image J software.

40L = assay: Survival in intraperitoneal malignant mesothelioma model, 40L; type: in vivo; settings: 40L model, C57BL/6 mice; IP once a week for four weeks; AMD3100 1 mg/kg, VIC-008 20 μg per mouse
Method: (§1) Intraperitoneal malignant mesothelioma (MM) models were established in immunocompetent C57BL/6 mice using syngeneic 40L and AE17 cell lines. Here, we tested the effect of AMD3100 and VIC-008, alone or in combination, on mouse survival in the mesothelioma-bearing mice. […], alone, was administered at 20 μg per mouse intraperitoneally (IP) once a week for four successive weeks. AMD3100 was administered at 1 mg/kg of mouse body weight via IP injection once a week for four successive weeks.

AE17 = assay: Survival in intraperitoneal malignant mesothelioma model, AE17; type: in vivo; settings: C57BL/6 mice, IP once a week for four weeks, AMD3100 1 mg/kg, VIC-008 20 μg per mouse
Method: as §1

ID8 cells = tested on: ID8 cells
Method: (§2) Sequential Delivery of Small Molecules and Chemotherapy: ID8 cells were exposed to AMD3100 in a 6 well plate (2.5×10^5 cells/well) for 72 hr. Cells were then washed and counted. Cell viability was checked by propidium iodide. For each condition, 500 cells per well of viable ID8 cells were then seeded into a 96 well black assay plate. ID8 cells were then incubated in DMEM containing a carrier, AMD3100 10 μM, TAXOL 0.005 μM, or both for another 72 hr. For TOV-112D cells, initial 72 hr incubation was with AMD3100 5 μM, followed by 96 hr incubation in media containing AMD3100 5 μM, TAXOL 1 nM, or both. At the conclusion of the experiment, plates were washed and dsDNA was measured via CyQuant assay.

TOV-112D cells [2] = tested on: TOV-112D cells
Method: as §2

Chain of CXCR4 (P70658 whole entry): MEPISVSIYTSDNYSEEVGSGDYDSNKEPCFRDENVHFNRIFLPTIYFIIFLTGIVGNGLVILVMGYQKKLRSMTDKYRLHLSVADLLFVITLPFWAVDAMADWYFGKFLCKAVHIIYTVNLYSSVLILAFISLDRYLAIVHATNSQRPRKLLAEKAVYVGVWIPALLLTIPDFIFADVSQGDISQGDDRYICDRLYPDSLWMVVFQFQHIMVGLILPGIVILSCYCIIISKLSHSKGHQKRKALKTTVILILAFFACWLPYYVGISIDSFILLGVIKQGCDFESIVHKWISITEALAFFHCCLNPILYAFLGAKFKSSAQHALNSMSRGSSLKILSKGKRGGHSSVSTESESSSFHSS

In the case of Plerixafor octahydrochioride [AMD3100], the “expression of CXCR4 reduced by” value (CXCR4; 4 hours) was 24.5%, the “expression of CXCR4 reduced by” value (CXCR4; 18 hours) was 23.5% and the “surface expression of CXCR4, significance of change” value (CXCR4; AMD3100 for either 4 or 18 hours) was “did not significantly alter”. For the same substance, the colony formation (TOV-112D cells [1]) was “did not reduce colony formation”, the “animal survival compared to saline control” value (40L) was “modest benefit to survival” and the “animal survival compared to saline control” value (AE17) was “modest benefit to survival”. The “proliferated more than untreated cells” value (ID8 cells; ID8, no pre-treatment, re-plated in AMD3100 10 μM media 72 hr, not significant) was 22%, the “proliferation reduced by, vs untreated control cells” value (ID8 cells; ID8, pre-treated with AMD3100 72 hr, reseeded in AMD3100 10 μM 72 hr) was 48% and the increased growth (ID8 cells; ID8, treated with AMD3100 and then incubated without drug) was 22%. The “sensitization of cells to subsequent TAXOL by AMD3100 pre-treatment” value (ID8 cells; ID8, vs untreated control cells then incubated with TAXOL) was “did not significantly sensitize”, the “sensitization of cells by AMD3100 pre-treatment” value (TOV-112D cells [2]) was “did not significantly sensitize” and the “proliferation reduced by” value (TOV-112D cells [2]; AMD3100 5 μM 72 hr, then re-plated in AMD3100 96 hrs) was 79.5%. The “proliferation reduced by” value (TOV-112D cells [2]; AMD3100 5 μM 72 hr, then re-plated in control media 96 hrs) was 49%, the “proliferation reduced by” value (TOV-112D cells [2]; control media, then AMD3100 5 μM 96 hr) was 51% and the “sensitization of cells by AMD3100 pre-treatment” value (TOV-112D cells [2]; listed as AMD-3100) was “significantly sensitized”.
